Legend:
HDAC4 = target: T1, HDAC4 (Homo sapiens, UniProt P56524); conditions: older assays, given for HDAC4/5 together; cited from earlier work
T1 construct: purchased Reaction Biology Corp. (Malvern, PA)

HDAC11 = HDAC11 (Homo sapiens, UniProt Q96DB2); assay: In vitro fluorescence-based HDAC inhibition assay (Reaction Biology); conditions: read-out: IC50 HDAC11; experiment performed once
UM-UC-3 = assay: MTT viability assay (CC50); type: cell-based, human; conditions: UM-UC-3, MTT, 72 h of incubation
Protocol: (§1) Further experiments were performed in VM-CUB1 and UM-UC-3 cells overexpressing HDAC4 (see below). Standard UCCs were obtained from the DSMZ (Braunschweig, Germany) and Dr. H.B. Grossmann HB (Houston, USA). For comparison, we investigated the spontaneously immortalized normal human bladder cell line HBLAK (provided by CELLnTEC, Bern, Switzerland) and the immortalized human embryonic kidney cell line HEK-293 (provided by Dr. V. Kolb-Bachofen, Duesseldorf, Germany). Cells were cultured and treated in DMEM GlutaMAX-I (Gibco, Darmstadt, Germany; UCCs and HEK-293) supplemented with 10% fetal calf serum (Biochrom, Berlin, Germany), except for HBLAK cultured in CnT-Prime Epithelial Culture Medium (CELLnTEC, Bern, Switzerland; HBLAK), at 37 °C and 5% CO2. STR (short tandem repeat) profiling via DNA fingerprint analysis was performed for all cell lines. Primary cultures of normal urothelial cells (UP) were established from healthy ureters removed during tumor nephrectomy and cultured as described. These cultures were used with informed consent of the patients and approval by the Ethics Committee of the Medical Faculty of the Heinrich-Heine-University, study number 1788. All inhibitors were dissolved in DMSO and stored as 10 mM stocks. […] The pan-HDACi inhibitor SAHA previously studied in detail was used for comparison. Solvent control cells were treated with equal amounts of DMSO.
(§2) For the determination of cellular mean cytotoxic concentration (CC50), UCCs, non-malignant control cells, and HDAC4-overexpressing clones were seeded in a 96-well format and treated once with a range of defined concentrations of the HDAC inhibitors. After 72 h, viability was quantified by NAD(P)H-dependent 3-(4,5-dimethylthiazol-2-yl)-2,5-diphenyltetrazolium bromide dye reduction assay (MTT, Sigma Aldrich, St. Louis, MO). CC50 values were estimated from three independent experiments by non-linear regression analysis (four-parameter logistic equation) using Prism 4.0 (Graph Pad) or Origin 8.0 (Origin Lab, Northhampton, GB). For time-dependent proliferation experiments, viability of untreated or inhibitor-treated cells was measured after 24, 48, and 72 h.

639-V = assay: MTT viability assay (CC50); type: cell-based, human; conditions: 72 h of incubation
Protocol: as §1, §2

HEK-293 = assay: MTT viability assay (CC50); type: cell-based, human; conditions: HEK-293, MTT, 72 h of incubation
Protocol: as §1, §2

HBLAK = assay: MTT viability assay (CC50); type: cell-based, human; conditions: 72 h of incubation
Protocol: as §1, §2

VM-CUB1 = assay: MTT viability assay (CC50); type: cell-based, human; conditions: VM-CUB1, MTT, 72 h of incubation
Protocol: as §1, §2

T1 sequence (P56524 whole entry): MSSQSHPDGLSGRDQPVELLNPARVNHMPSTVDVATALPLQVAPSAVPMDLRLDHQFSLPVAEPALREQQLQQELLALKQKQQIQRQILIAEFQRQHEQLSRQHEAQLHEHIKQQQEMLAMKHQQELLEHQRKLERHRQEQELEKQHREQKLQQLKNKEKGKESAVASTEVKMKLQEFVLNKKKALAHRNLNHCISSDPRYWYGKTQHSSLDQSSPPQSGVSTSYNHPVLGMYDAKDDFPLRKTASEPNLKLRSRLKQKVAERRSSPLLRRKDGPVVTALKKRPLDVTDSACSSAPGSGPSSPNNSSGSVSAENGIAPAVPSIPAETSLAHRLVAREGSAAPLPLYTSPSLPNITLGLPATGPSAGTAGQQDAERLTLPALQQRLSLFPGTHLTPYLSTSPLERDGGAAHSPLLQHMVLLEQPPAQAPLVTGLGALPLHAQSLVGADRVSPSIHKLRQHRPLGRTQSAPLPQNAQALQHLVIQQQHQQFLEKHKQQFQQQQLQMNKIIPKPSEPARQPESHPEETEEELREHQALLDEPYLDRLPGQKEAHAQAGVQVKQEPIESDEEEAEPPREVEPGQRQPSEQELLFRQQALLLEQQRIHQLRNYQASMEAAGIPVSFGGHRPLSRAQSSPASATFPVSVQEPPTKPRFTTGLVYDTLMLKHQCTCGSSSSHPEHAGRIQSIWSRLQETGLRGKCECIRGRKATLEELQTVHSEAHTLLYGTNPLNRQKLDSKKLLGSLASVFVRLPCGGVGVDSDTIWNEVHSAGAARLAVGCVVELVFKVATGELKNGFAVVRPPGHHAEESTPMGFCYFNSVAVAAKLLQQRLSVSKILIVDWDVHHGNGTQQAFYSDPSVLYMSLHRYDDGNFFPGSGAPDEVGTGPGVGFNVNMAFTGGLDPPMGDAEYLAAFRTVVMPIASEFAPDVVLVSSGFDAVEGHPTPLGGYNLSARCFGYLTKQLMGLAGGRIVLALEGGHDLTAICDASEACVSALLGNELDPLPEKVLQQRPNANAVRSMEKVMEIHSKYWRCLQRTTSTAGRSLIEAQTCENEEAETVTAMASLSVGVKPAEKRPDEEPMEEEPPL
Sequence of HDAC11 (Q96DB2 whole entry): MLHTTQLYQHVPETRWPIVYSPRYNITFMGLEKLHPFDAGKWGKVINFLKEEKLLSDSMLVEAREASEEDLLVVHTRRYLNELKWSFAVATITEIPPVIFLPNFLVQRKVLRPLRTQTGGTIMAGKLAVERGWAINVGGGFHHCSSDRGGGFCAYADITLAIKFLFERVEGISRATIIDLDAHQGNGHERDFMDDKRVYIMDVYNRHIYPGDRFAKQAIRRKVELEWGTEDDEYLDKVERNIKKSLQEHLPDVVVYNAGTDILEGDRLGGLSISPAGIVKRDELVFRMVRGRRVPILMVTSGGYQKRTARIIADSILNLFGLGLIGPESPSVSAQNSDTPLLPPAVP

## Cc1cc(C)cc(C(=O)NOCCCCCC(=O)NO)c1 [19i]
HDAC4
  in vitro IC50 HDAC4: nanomolar range
HDAC11
  IC50: 109000 nM
UM-UC-3
  CC50: 820 nM
639-V
  CC50: 1030 nM
HEK-293
  CC50: 610 nM
HBLAK
  CC50: > 5000 nM
VM-CUB1
  CC50: 970 nM

Source: PMC6069857, “Effects of novel HDAC inhibitors on urothelial carcinoma cells” (Clinical Epigenetics, 2018)
